Assay results reported in patent publication US8735140B2, “Preservation and composition of bioprocess algae for production of lipids, seedstock, and feed” (Kuehnle AgroSystems, Inc., priority 2008, dated 2014).

Experiments:
Format in all cases: cell-based
Chlorella KAS503 = assay: Trehalose preservation, pretreatment with 0.5M sorbitol and embedding in alginate mat; conditions: for % viability after storage & rejuvenation / Cell recovery after storage, relative to control: 0M control = 100%; for Cell number after 21 weeks in storage & rejuvenation: 3 weeks rejuvenation; for Growth after storage & rejuvenation: 21 weeks + 3 weeks rejuvenation; for Cell recovery after storage, relative to control: 21 weeks
Method: (§1) Cells in 40 ml flask cultures are grown to mid-log phase with a density of between 3×10^6 and 3×10^7 cells/ml, and are centrifuged. Culture medium is removed after centrifugation, resulting in more concentrated algae cells. Cells are then re-suspended in ideal glass solution consisting of fresh culture medium and trehalose at a concentration of 0.1M, 0.3M, and 0.5M (dihydrate trehalose 100 from Hayashibara Co. Ltd, Okayama, Japan), respectively, and left overnight with mild agitation. Cells are centrifuged again to remove the ideal glass solution the next day, and are re-suspended in fresh or salt water without any nutrient. The cell density of the resulting suspension is determined prior to storage under the various treatments. (Some cells were also treated with a 0.5M sorbitol solution). In one specific embodiment, 2% (w/v) alginate solution (Sigma-Aldrich A-2033) and 3% CaCl2 solution (Sigma-Aldrich C1016) are prepared in salt water or fresh water medium as required by specific algae species, and autoclave sterilized. Then, 2.0 ml 2% alginate solution is pipetted into each well of a BD Falcon 12-well plate. 0.2 ml algae cell suspension is then pipetted into each well and the mixture is further stirred. The alginate-cell mixture is further sprayed with 3% CaCl2 solution in a sterile pump bottle, allowing the alginate to solidify. After solidification, plates are closed and placed under low light and at ambient temperature. After stored under the above preservation conditions for 5 months, algae cells can be rejuvenated by overlaying alginate/algae mixture with 3.0 ml sterile 5.0% NaPolyphosphate (Sigma Aldrich 305553) and allowing to the mixture sit overnight. The algae/alginate/NaPolyphosphate mixture is then removed from the 12-well plate, diluted with fresh medium (3 parts fresh medium to 1 part cell suspension) and placed under light. In one specific embodiment, cells are treated with trehalose solution at various concentrations and left overnight. Cells are centrifuged the next day to remove the trehalose solution, and then re-suspended in sterile 0.5M D-sorbitol (Fisher Scientific […]) dissolved in salt or fresh-water medium as required by specific algae species. Cells are left to stand for 2 hours with mild agitation. After 2 hours, cells are centrifuged again to remove the 0.5M sorbitol solution and re-suspended in fresh or salt-water medium. Cells are counted after the re-suspension. Cell viability is determined by comparing the cell growth in control set with the experimental set. Specifically, cell counts are performed on all samples. The averaged density value (in cells per ml) for all the cultures after treatment is defined as “rejuvenation cell count.” In some samples, the percent recovery of cells immediately after storage is also determined. The formulae are illustrated as follows: Growth=(rejuvenation cell count)/(initial cell count) Cell recovery after storage=(cell density after storage)/(initial cell density), with controls set at 100% cell recovery. Viability after storage and rejuvenation in nutrient medium=(Growth of treatment)/(Growth of control)×100%, with controls set at 100% viability

Chlorella KAS603 = assay: as above; conditions: for % viability after storage & rejuvenation / Cell recovery after storage, relative to control: 0M control = 100%; for Cell number after 21 weeks in storage & rejuvenation: 3 weeks rejuvenation; for Growth after storage & rejuvenation: 21 weeks + 3 weeks rejuvenation
Method: as §1

Synechocystis KAS635 = assay: as above; conditions: for % viability after storage & rejuvenation / Cell recovery after storage, relative to control: 0M control = 100%; for Cell number after 21 weeks in storage & rejuvenation: 3 weeks rejuvenation; for Cell recovery after storage / Cell recovery after storage, relative to control: 21 weeks; for Growth after storage & rejuvenation: 21 weeks + 3 weeks rejuvenation
Method: as §1

Tetraselmis KAS633 = assay: as above; conditions: for % viability after storage & rejuvenation / Cell recovery after storage, relative to control: 0M control = 100%; for Cell number after 21 weeks in storage & rejuvenation: 3 weeks rejuvenation; for Growth after storage & rejuvenation: 21 weeks + 3 weeks rejuvenation; for Cell recovery after storage, relative to control: 21 weeks
Method: as §1

algae cells = assay: Trehalose treatment, viability at room temperature under low light
Method: Cells in 40 ml flask cultures are grown to mid-log phase with a density of between 3×10^6 and 3×10^7 cells/ml, and are centrifuged. Culture medium is removed after centrifugation, resulting in more concentrated algae cells. Cells are then re-suspended in ideal glass solution consisting of fresh culture medium and trehalose at a concentration of 0.1M, 0.3M, and 0.5M (dihydrate trehalose 100 from Hayashibara Co. Ltd, Okayama, Japan), respectively, and left overnight with mild agitation. Cells are centrifuged again to remove the ideal glass solution the next day, and are re-suspended in fresh or salt water without any nutrient. The cell density of the resulting suspension is determined prior to storage under the various treatments. (Some cells were also treated with a 0.5M sorbitol solution). Cell viability is determined by comparing the cell growth in control set with the experimental set. Specifically, cell counts are performed on all samples. The averaged density value (in cells per ml) for all the cultures after treatment is defined as “rejuvenation cell count.” In some samples, the percent recovery of cells immediately after storage is also determined. The formulae are illustrated as follows: Growth=(rejuvenation cell count)/(initial cell count) Cell recovery after storage=(cell density after storage)/(initial cell density), with controls set at 100% cell recovery. […]

[1] = 0.1M trehalose in F/2, 0.5M sorbitol pretreatment
[2] = 0.3M trehalose in F/2, 0.5M sorbitol pretreatment
[3] = 0.5M trehalose in F/2, 0.5M sorbitol pretreatment
[4] = 0.1M trehalose in F/2, 0.5M sorbitol pretreatment, 21 weeks
[5] = 0.1M trehalose in BG11, 0.5M sorbitol pretreatment
[6] = 0.3M trehalose in BG11, 0.5M sorbitol pretreatment
[7] = 0.5M trehalose in BG11, 0.5M sorbitol pretreatment

OC[C@H]1O[C@H](O[C@H]2O[C@H](CO)[C@@H](O)[C@H](O)[C@H]2O)[C@H](O)[C@@H](O)[C@@H]1O [trehalose, α-D-glycosyl-α-D-glycosylpyranoside] was tested, and the “Cell number after 21 weeks in storage” value (Chlorella KAS503; [1]) was 1.163 × 10^7, the “% viability after storage & rejuvenation” value (Chlorella KAS503; [1]) was “(51%)” and the “Cell number after 21 weeks in storage & rejuvenation” value (Chlorella KAS503; [1]) was 1.03 × 10^7 cells/ml. The “Growth after storage & rejuvenation” value (Chlorella KAS503; [1]) was 0.89, the “Cell recovery after storage, relative to control” value (Chlorella KAS503; [1]) was “(227%)” and the “Cell number after 21 weeks in storage” value (Chlorella KAS503; [2]) was 8.097 × 10^6. For the same compound, the “% viability after storage & rejuvenation” value (Chlorella KAS503; [2]) was “(148%)”, the “Cell number after 21 weeks in storage & rejuvenation” value (Chlorella KAS503; [2]) was 2.080 × 10^7 cells/ml and the “Growth after storage & rejuvenation” value (Chlorella KAS503; [2]) was 2.57. For the same compound, the “Cell recovery after storage, relative to control” value (Chlorella KAS503; [2]) was “(226%)”, the “Cell number after 21 weeks in storage” value (Chlorella KAS503; [3]) was 8.589 × 10^6 and the “% viability after storage & rejuvenation” value (Chlorella KAS503; [3]) was “(132%)”. The “Cell number after 21 weeks in storage & rejuvenation” value (Chlorella KAS503; [3]) was 1.959 × 10^7 cells/ml, the “Growth after storage & rejuvenation” value (Chlorella KAS503; [3]) was 2.28 and the “Cell recovery after storage, relative to control” value (Chlorella KAS503; [3]) was “(231%)”. The “Cell number after 21 weeks in storage” value (Chlorella KAS603; [1]) was 1.920 × 10^7, the “% viability after storage & rejuvenation” value (Chlorella KAS603; [1]) was “(105)%” and the “Cell number after 21 weeks in storage & rejuvenation” value (Chlorella KAS603; [1]) was 3.102 × 10^7 cells/ml. The “Cell recovery after storage” value (Chlorella KAS603; [4]) was 1.76, the “Growth after storage & rejuvenation” value (Chlorella KAS603; [1]) was 1.62 and the “Cell recovery after storage, relative to control” value (Chlorella KAS603; [4]) was “(61%)”. For the same compound, the “Cell number after 21 weeks in storage” value (Chlorella KAS603; [2]) was 2.378 × 10^7, the “% viability after storage & rejuvenation” value (Chlorella KAS603; [2]) was “(139)%” and the “Cell number after 21 weeks in storage & rejuvenation” value (Chlorella KAS603; [2]) was 5.099 × 10^7 cells/ml. The “Growth after storage & rejuvenation” value (Chlorella KAS603; [2]) was 2.14, the “Cell recovery after storage, relative to control” value (Chlorella KAS603; 0.3M trehalose in F/2, 0.5M sorbitol pretreatment, 21 weeks) was “(123%)” and the “Cell number after 21 weeks in storage” value (Chlorella KAS603; [3]) was 2.113 × 10^7. For the same compound, the “% viability after storage & rejuvenation” value (Chlorella KAS603; [3]) was “(160%)”, the “Cell number after 21 weeks in storage & rejuvenation” value (Chlorella KAS603; [3]) was 5.197 × 10^7 cells/ml and the “Growth after storage & rejuvenation” value (Chlorella KAS603; [3]) was 2.46. The “Cell recovery after storage, relative to control” value (Chlorella KAS603; 0.5M trehalose in F/2, 0.5M sorbitol pretreatment, 21 weeks) was “(155%)”, the “Cell number after 21 weeks in storage” value (Synechocystis KAS635; [5]) was 1.275 × 10^7 and the “% viability after storage & rejuvenation” value (Synechocystis KAS635; [5]) was “(87%)”. The “Cell number after 21 weeks in storage & rejuvenation” value (Synechocystis KAS635; [5]) was 2.436 × 10^7 cells/ml, the “Cell recovery after storage” value (Synechocystis KAS635; [5]) was 0.39 and the “Growth after storage & rejuvenation” value (Synechocystis KAS635; [5]) was 1.91. For the same compound, the “Cell recovery after storage, relative to control” value (Synechocystis KAS635; [5]) was “(106%)”, the “Cell number after 21 weeks in storage” value (Synechocystis KAS635; [6]) was 1.421 × 10^7 and the “% viability after storage & rejuvenation” value (Synechocystis KAS635; [6]) was “(144%)”. For the same compound, the “Cell number after 21 weeks in storage & rejuvenation” value (Synechocystis KAS635; [6]) was 4.495 × 10^7 cells/ml, the “Cell recovery after storage” value (Synechocystis KAS635; [6]) was 0.42 and the “Growth after storage & rejuvenation” value (Synechocystis KAS635; [6]) was 3.16. For the same compound, the “Cell recovery after storage, relative to control” value (Synechocystis KAS635; [6]) was “(114%)”, the “Cell number after 21 weeks in storage” value (Synechocystis KAS635; [7]) was 2.023 × 10^7 and the “% viability after storage & rejuvenation” value (Synechocystis KAS635; [7]) was “(80%)”. For the same compound, the “Cell number after 21 weeks in storage & rejuvenation” value (Synechocystis KAS635; [7]) was 3.560 × 10^7 cells/ml, the “Cell recovery after storage” value (Synechocystis KAS635; [7]) was 0.72 and the “Growth after storage & rejuvenation” value (Synechocystis KAS635; [7]) was 1.76. The “Cell recovery after storage, relative to control” value (Synechocystis KAS635; [7]) was “(195%)”, the “Cell number after 21 weeks in storage” value (Tetraselmis KAS633; [1]) was 2.831 × 10^6 and the “% viability after storage & rejuvenation” value (Tetraselmis KAS633; [1]) was “(104%)”. For the same compound, the “Cell number after 21 weeks in storage & rejuvenation” value (Tetraselmis KAS633; [1]) was 1.163 × 10^7 cells/ml, the “Growth after storage & rejuvenation” value (Tetraselmis KAS633; [1]) was 4.1 and the “Cell recovery after storage, relative to control” value (Tetraselmis KAS633; [1]) was “(78%)”. For the same compound, the “Cell number after 21 weeks in storage” value (Tetraselmis KAS633; [2]) was 2.276 × 10^6, the “% viability after storage & rejuvenation” value (Tetraselmis KAS633; [2]) was “(158%)” and the “Cell number after 21 weeks in storage & rejuvenation” value (Tetraselmis KAS633; [2]) was 1.420 × 10^7 cells/ml. For the same compound, the “Growth after storage & rejuvenation” value (Tetraselmis KAS633; [2]) was 6.23, the “Cell recovery after storage, relative to control” value (Tetraselmis KAS633; [2]) was “(80%)” and the “Cell number after 21 weeks in storage” value (Tetraselmis KAS633; [3]) was 1.899 × 10^6. The “% viability after storage & rejuvenation” value (Tetraselmis KAS633; [3]) was 186%, the “Cell number after 21 weeks in storage & rejuvenation” value (Tetraselmis KAS633; [3]) was 1.399 × 10^7 cells/ml and the “Growth after storage & rejuvenation” value (Tetraselmis KAS633; [3]) was 7.34. For the same compound, the “Cell recovery after storage, relative to control” value (Tetraselmis KAS633; [3]) was “(58%)” and the “Period for which cells remain viable” value (algae cells) was “at least 5 months”.
